What was measured:
Type in all cases: in vivo
Alopecurus myosuroides [1] = experiment: Pre-emergence herbicidal action, ALOMY; conditions: dosage 320 g/ha, scored visually after 3 weeks vs untreated controls
How it was run: (§1)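 Weed seeds were laid out in sandy loam and covered with soil, then the soil surface was treated with an aqueous suspension or emulsion of the formulated compound containing 0.2% wetting agent. Pots stayed in the greenhouse for 3 weeks before damage was rated visually against untreated plants.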

Setaria viridis [2] = experiment: Pre-emergence herbicidal action, SETVI; conditions: dosage 320 g/ha, scored visually after 3 weeks vs untreated controls
How it was run: as §1

Matricaria inodora = experiment: Pre-emergence herbicidal action, MATIN; conditions: dosage 320 g/ha, scored visually after 3 weeks vs untreated controls
How it was run: as §1

Stellaria media [3] = experiment: Pre-emergence herbicidal action, STEME; conditions: dosage 320 g/ha, scored visually after 3 weeks vs untreated controls
How it was run: as §1

Viola tricolor [4] = experiment: Pre-emergence herbicidal action, VIOTR; conditions: dosage 320 g/ha, scored visually after 3 weeks vs untreated controls
How it was run: as §1

Abutilon theophrasti [5] = experiment: Post-emergence herbicidal action, ABUTH; conditions: 80 g/ha, Table D
How it was run: (§2)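 Herbicidal effect is rated visually as percent versus untreated plants (100% = dead, 0% = like control) about 3 weeks after spraying. Plants were sown in sandy loam in the greenhouse and sprayed on green parts at the one-leaf stage, 2 to 3 weeks post-sowing.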

Amaranthus retroflexus [6] = experiment: Pre-emergence herbicidal action, AMARE; conditions: dosage 320 g/ha, scored visually after 3 weeks vs untreated controls
How it was run: as §1

Pharbitis purpureum = experiment: Post-emergence herbicidal action, PHBPU; conditions: 80 g/ha, Table D
How it was run: as §2

Cyperus serotinus = experiment: Pre-emergence herbicidal action, CYPES; conditions: dosage 320 g/ha, scored visually after 3 weeks vs untreated controls
How it was run: as §1

Avena fatua [7] = experiment: Pre-emergence herbicidal action, AVEFA; conditions: dosage 320 g/ha, scored visually after 3 weeks vs untreated controls
How it was run: as §1

ECHCG = experiment: Post-emergence herbicidal action, ECHCG; conditions: 80 g/ha, Table C
How it was run: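 Weed and crop plants grown in sandy loam in the greenhouse, treated at the one-leaf stage 2–3 weeks after sowing. Damage scored visually after about 3 weeks vs untreated controls (0% = control, 100% = dead).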

Setaria viridis [8] = experiment: Post-emergence herbicidal action, SETVI; conditions: 80 g/ha, Table C
How it was run: as §2

Avena fatua [9] = experiment: Post-emergence herbicidal action, AVEFA; conditions: 80 g/ha, Table C
Method: (§3) Seeds of monocotyledonous and dicotyledonous weed and crop plants are laid out in sandy loam soil in wood-fiber pots, covered with soil and cultivated in a greenhouse under good growth conditions. 2 to 3 weeks after sowing, the test plants are treated at the one-leaf stage. The compounds of the invention, formulated in the form of wettable powders (WP) or as emulsion concentrates (EC), are then sprayed onto the green parts of the plants in the form of an aqueous suspension or emulsion at a water application rate equating to […], with addition of 0.2% wetting agent. After the test plants have been left to stand in the greenhouse under optimal growth conditions for about 3 weeks, the action of the preparations is assessed visually in comparison to untreated controls (herbicidal action in percent (%): 100% activity=the plants have died, 0% activity=like control plants). […] At the same time, inventive compounds leave Gramineae crops such as barley, wheat, rye, millet/sorghum, corn or rice virtually undamaged when applied post-emergence, even at high active compound dosages. In addition, some substances are also harmless to dicotyledonous crops such as soya, cotton, oilseed rape, sugar beet or potatoes. Some of the compounds according to the invention have high selectivity and are therefore suitable for controlling unwanted vegetation in agricultural crops by the post-emergence method. The data of Tables C and D below illustrate, in an exemplary manner, the […] herbicidal action of the compounds according to the invention, the herbicidal activity being stated in percent.
(§4) For comparison, the herbicidal activity of numerous compounds according to the invention was tested with the structurally closest compounds known from the documents WO 2011/035874, WO 2012/028579 and WO 2012/126932, by the pre- and post-emergence method.

Amaranthus retroflexus [10] = experiment: Post-emergence herbicidal action, AMARE; conditions: 80 g/ha, Table D
How it was run: as §2

Stellaria media [11] = experiment: Post-emergence herbicidal action, STEME; conditions: 80 g/ha, Table D
How it was run: as §2

Alopecurus myosuroides [12] = experiment: Post-emergence herbicidal action, ALOMY; conditions: 80 g/ha, Table C
Method: as §3, §4

Abutilon theophrasti [13] = experiment: Pre-emergence herbicidal action, ABUTH; conditions: dosage 320 g/ha, scored visually after 3 weeks vs untreated controls
How it was run: as §1

Viola tricolor [14] = experiment: Post-emergence herbicidal action, VIOTR; conditions: 80 g/ha, Table D
How it was run: as §2

Structure (SMILES)	herbicidal activity ALOMY (Alopecurus myosuroides [1]) [%]	herbicidal activity SETVI (Setaria viridis [2]) [%]	herbicidal activity MATIN (Matricaria inodora) [%]	Herbicidal activity STEME (Stellaria media [3]) [%]	herbicidal activity VIOTR (Viola tricolor [4]) [%]	herbicidal activity ABUTH (Abutilon theophrasti [5]) [%]	herbicidal activity AMARE (Amaranthus retroflexus [6]) [%]	Herbicidal activity PHBPU (Pharbitis purpureum) [%]	herbicidal activity CYPES (Cyperus serotinus) [%]	herbicidal activity AVEFA (Avena fatua [7]) [%]	Herbicidal activity ECHCG (ECHCG) [%]	herbicidal activity SETVI (Setaria viridis [8]) [%]	herbicidal activity AVEFA (Avena fatua [9]) [%]	herbicidal activity AMARE (Amaranthus retroflexus [10]) [%]	Herbicidal activity STEME (Stellaria media [11]) [%]	herbicidal activity ALOMY (Alopecurus myosuroides [12]) [%]	herbicidal activity ABUTH (Abutilon theophrasti [13]) [%]	herbicidal activity VIOTR (Viola tricolor [14]) [%]
CCn1nnnc1NC(=O)c1ccc(C(F)F)c([S+](C)[O-])c1Br (stereo not drawn) [Example 2-62]	100	100	100	100	100	100	100	100	100	100	100	100	100	100	100	90	100	100
CCn1nnnc1NC(=O)c1ccc(C(F)F)c(SC)c1Br [Example 2-61]	100	100	100	100	100	100	100	100	100	100	90	90	90	90	100	90	100	100
CCSc1c(C(F)F)ccc(C(=O)Nc2nnnn2C)c1F [Example 1-40]	100	100	100	100	100	100	100	100	100	90	100	100	80	100	90	90	100	90
CCc1c(C(=O)Nc2nnnn2C)ccc(C(F)F)c1[S+](C)[O-] (stereo not drawn) [Example 1-14]	100	100	100	100	100	100	100	90	100	100	100	100	90	90	100	90	100	90
CCS(=O)(=O)c1c(C(F)F)ccc(C(=O)Nc2nonc2Cl)c1C [Example 6-6]	90	100	100	90	100	80	90	100	80	90	90	90	80	80	100	80	100	100
CCn1nnnc1NC(=O)c1ccc(C(F)F)c([S+](C)[O-])c1C1CC1 (stereo not drawn) [Example 2-26]	100	100	100	100	100	90	100	90	90	100	100	100	100	100	100	90	100	100
CCS(=O)(=O)c1c(C(F)F)ccc(C(=O)Nc2nnnn2C)c1Cl [Example 1-54]	100	100	100	100	100	100	100	100	100	100	90	100	100	100	100	90	100	100
CCn1nnnc1NC(=O)c1ccc(C(F)F)c([S+]([O-])CC)c1C1CC1 (stereo not drawn) [Example 2-29]	100	100	100	100	100	100	100	90	90	100	100	100	90	100	100	100	100	100
CC[S+]([O-])c1c(C(F)F)ccc(C(=O)Nc2nnnn2C)c1F (stereo not drawn) [Example 1-41]	100	100	100	100	100	100	100	90	100	100	90	90	100	100	100	90	100	100
CCc1c(C(=O)Nc2nnc(C)o2)ccc(C(F)F)c1[S+](C)[O-] (stereo not drawn) [Example 7-12]	100	100	100	100	100	100	100	90	100	100	100	90	90	100	100	90	100	100

— patent US20230183193A1, “4-DIFLUOROMETHYL BENZOYL AMIDES WITH HERBICIDAL ACTION” (BAYER CROPSCIENCE AKTIENGESELLSCHAFT, priority 2017, published 2023)
